Several values for one entry are separate records, joined by “and”; a condition that tells them apart may be missing. Identical values can stand only once.
What was measured:
[1] = Population pharmacokinetic model (Phoenix NLME, FOCE-ELS) of yimitasvir in Chinese healthy volunteers and HCV infection patients; format: in vivo, human
Procedure: The current population PK analysis of yimitasvir was performed using rich and sparse PK samples collected from six clinical pharmacology trials [4 phase 1 ([Zhao et al., 2019]), 1 phase 1b ([Zhang et al., 2018]) and 1 phase 2 studies] in Chinese healthy volunteers and HCV-infected patients. Rich sampling entailed serial blood sampling at defined time points, and sparse sampling (single sample) only in phase 2 study entailed blood collection at every study visits. Patients with genotype 1 HCV infection were eligible, while patients with prior use of direct-acting antiviral agents (DAA) for HCV infection treatment were excluded in phase 1b and phase 2 studies.
A fully validated liquid chromatography-tandem mass spectrometry (LC-MS/MS) method determining yimitasvir concentration in phase 1 and phase 1b studies had been reported elsewhere ([Zhang et al., 2018]; [Zhao et al., 2019]).
Plasma concentration of yimitasvir in phase 2 study was analyzed using a validated LC-MS/MS method equipped with a Shimadzu LC-30AD liquid chromatography-SCIEX API6500 mass spectrometer. Chromatographic retention and separation were achieved on a XBridge Peptide BEH C18, 50 × 2.1 mm, 3.5 μm column. Gradient elution was used with 2 mM ammonium acetate in water with 0.1% formic acid as mobile phase A and acetonitrile:methanol (30:70, v:v) as mobile phase B at a flow rate of 0.5 ml min^−1. The column temperature was maintained at 45°C. Quantitation was accomplished in positive mode with precursor-to-production pairs of m/z 428.5→315.3 for yimitasvir and m/z 432.5→319.5 for the internal standard d8-DAG (isotope-labelled yimitasvir), respectively.
Population pharmacokinetic analysis of yimitasvir was performed by Phoenix NLME software (Version 8.1, Certara) using the first-order conditional estimation-extended least squares (FOCE-ELS) method.
The structural model was first tested by fitting a one-compartment or two-compartment model to the log-transformed PK data. Different absorption models including first-order absorption with or without a lag time, sequential zero-first order absorption, transit absorption and saturable Michaelis-Menten absorption model, were also tested. The optimal structural model was selected based on the Akaike Information Criteria (AIC), minimization success, visual inspection of goodness-of-fit plots and individual fit.
Inter-subject variability was estimated by exponential model for PK parameters as follows (Eq. 1): θi=θTV×e^ηi, (1) where θi is the parameter estimation for the ith individual, θTV is the typical value of the parameter estimation in the population, ηi is a random variable which assumed to be normally distributed with a mean of 0 and a variance of ω^2. Proportional error model and proportional plus additive error model were tested as residual error models.
Sigmoidal maximum effect (Emax) (Eq. 2) and linear models (Eq. 3) were tested to quantify the relationship between bioavailability and dose: {F=θF ,Dose≤100 mgF=θF−Fmax×(Dose−100)/(F50+(Dose−100)),Dose>100 mg, (2) where θF is the bioavailability in individuals who received ≤100 mg yimitasvir, which was fixed to 1. Fmax is the maximal reduction in bioavailability and F50 is the dose associated with a half-maximal reduction in bioavailability. {F=θF ,Dose≤100 mgF=θF −Alpha×(Dose−100)/100,Dose>100 mg, (3) where Alpha is a slope term determining the relative change in bioavailability for each 100 mg increase in yimitasvir dose.
Subsequently, different covariates were tested using a stepwise forward inclusion [a decrease in objective function value (OFV) of > 6.63, p < 0.01] and a stricter backward exclusion procedure (an increase in OFV of > 10.83, p < 0.001). […]

[2] = cited from earlier work
[3] = Phase 1b study in patients with chronic HCV genotype 1 infection; format: in vivo, human; details: evening after dinner for more than 4 h
Procedure: Yimitasvir is a novel, oral HCV non-structural protein 5A (NS5A) inhibitor for the treatment of chronic HCV genotype 1 infection in combination with sofosbuvir. The pharmacokinetic profile of yimitasvir has been evaluated in healthy volunteers and patients with chronic HCV infection ([Zhang et al., 2018]; [Zhao et al., 2019]). Following fasted single oral dose of yimitasvir in healthy volunteers, yimitasvir was absorbed with a peak concentration (Cmax) 3.5–4.0 h post-dose. […] Yimitasvir was approximately 79.2–86.6% bound to human plasma proteins and the binding was independent of drug concentration over the range of 100–2000 ng ml^−1. No metabolism of yimitasvir was detected in vitro during incubations with hepatic microsomes from mice, rats, dogs, monkeys and humans. […] Steady state was achieved by day 5 following the once daily dosing regimen. […] Yimitasvir is a substrate and inhibitor of the drug transporter P-glycoprotein (P-gp).
The current population PK analysis of yimitasvir was performed using rich and sparse PK samples collected from six clinical pharmacology trials [4 phase 1 ([Zhao et al., 2019]), 1 phase 1b ([Zhang et al., 2018]) and 1 phase 2 studies] in Chinese healthy volunteers and HCV-infected patients. […]

[4] = system: CYP 2D6; details: cited from earlier work
[5] = monkeys; cited from earlier work
[6] = final model estimate (RSE%), food = 2, high-fat meal

Structure (SMILES): COC(=O)NC(C(=O)N1CCCC1c1ncc(-c2ccc(-c3ccc(-c4ccc5nc(C6CCCN6C(=O)C(NC(=O)OC)C(C)C)[nH]c5c4)c4c3C3CCC4C3)cc2)[nH]1)C(C)C (stereo not shown) [yimitasvir]
- Relative bioavailability of 200 mg to 100 mg ([1]; according to the final model): 87.1%
- Relative bioavailability of 400 mg to 100 mg ([1]; according to the final model): 61.3%
- CL/F ∼ ALT (covariate coefficient, power) ([1]; bootstrap mean): −0.0955 (−15.3)
- CL/F ∼ Female (covariate coefficient) ([1]; bootstrap mean): −0.250 (−14.6)
- F ∼ Food1 (covariate coefficient) ([1]; bootstrap mean): −0.312 (−34.9)
- F ∼ Food2 (covariate coefficient) ([1]; bootstrap mean): −0.473 (−19.8)
- Ka ∼ Food1 (covariate coefficient) ([1]; bootstrap mean): −1.72 (−10.5)
- Ka ∼ Food2 (covariate coefficient) ([1]; bootstrap mean): −2.43 (−7.4)
- Random effect CL/F (inter-individual variability) ([1]; bootstrap mean): 0.483 (5.8)
- Random effect CL/F ∼ V1/F (covariance) ([1]; bootstrap mean): 0.562 (8.1)
- Random effect V1/F (inter-individual variability) ([1]; bootstrap mean): 0.729 (11.0)
- Residual error σ (proportional) ([1]; bootstrap mean): 0.304 (3.4)
- Td ∼ Patient (covariate coefficient) ([1]; bootstrap mean): −0.403 (−27.9)
- CL/F ([1]; bootstrap mean (n = 1,000)): 13.8 (3.7) l h^−1
- Ka ([1]; bootstrap mean (n = 1,000)): 1.38 (13.7) h^−1
- Q/F ([1]; bootstrap mean (n = 1,000)): 4.04 (16.8) l h^−1
- Td ([1]; bootstrap mean (n = 1,000)): 2.22 (7.2) h
- V1/F ([1]; bootstrap mean (n = 1,000)): 189 (5.6) l
- V2/F ([1]; bootstrap mean (n = 1,000)): 59.1 (9.1) l
- Effect of age and BW on PK properties ([1]; covariate screening): no effect
- Decrease of bioavailability (F) for each 100 mg dose increase ([1]; dose > 100 mg, linear model): 12.9%
- Covariance of inter-individual variability of CL/F and V1/F ([1]; final model): 56.5%
- Inter-individual variability for CL/F ([1]; final model): 48.5%
- Inter-individual variability for V1/F ([1]; final model): 73.6%
- CL/F ∼ Female (covariate coefficient) ([1]; final model estimate (RSE%)): −0.251 (−14.2)
- Q/F ([1]; final model estimate (RSE%)): 3.96 (14.7) l h^−1
- Random effect CL/F (inter-individual variability) ([1]; final model estimate (RSE%)): 0.485 (3.8)
- Random effect CL/F ∼ V1/F (covariance) ([1]; final model estimate (RSE%)): 0.565 (5.1)
- Random effect V1/F (inter-individual variability) ([1]; final model estimate (RSE%)): 0.736 (6.9)
- Residual error σ (proportional) ([1]; final model estimate (RSE%)): 0.305 (0.7)
- Td ∼ Patient (covariate coefficient) ([1]; final model estimate (RSE%)): −0.416 (−10.7)
- V2/F ([1]; final model estimate (RSE%)): 58.6 (6.9) l
- CL/F ∼ ALT (covariate coefficient, power) ([1]; final model estimate (RSE%), baseline ALT normalised to median): −0.0950 (−21.2)
- Ka ([1]; final model estimate (RSE%), first-order absorption rate, typical healthy male volunteer, ALT 31.6 IU l^−1, fasted): 1.31 (7.2) h^−1
- Ka ∼ Food1 (covariate coefficient) ([1]; final model estimate (RSE%), food = 1, evening, fasted at least 4 h after dinner): −1.71 (−5.5)
- F ∼ Food1 (covariate coefficient) ([1]; final model estimate (RSE%), food = 1, fasted at least 4 h): −0.341 (−26.3)
- F ∼ Food2 (covariate coefficient) [1, 6]: −0.485 (−31.2)
- Ka ∼ Food2 (covariate coefficient) [1, 6]: −2.40 (−3.7)
- Td (duration of zero-order absorption) ([1]; final model estimate (RSE%), healthy volunteers): 2.17 h and 2.17 (4.4) h
- CL/F (apparent oral clearance) ([1]; final model estimate (RSE%), typical healthy male volunteer, ALT 31.6 IU l^−1, fasted): 13.8 l h^−1 and 13.8 (4.1) l h^−1
- Higher CL/F in male subjects than females ([1]; human, in vivo): 22.2%
- Vd/F ([1]; human, plasma, oral, final model estimate (RSE%), typical healthy male volunteer, ALT 31.6 IU l^−1, fasted, read-out: V1/F (central volume of distribution)): 188 L
- Zero-order absorption duration (Td) ([1]; patients): 1.43 h
- Decrease of F by high-fat meal ([1]; vs fasted): 38.5%
- Decrease of Ka by high-fat meal ([1]; vs fasted): 90.9%
- Solubility profile [2]: pH-dependent solubility profile
- AUC decrease compared to phase 1 SAD trial [3]: 40%
- Inhibition of CYP2D6 [4]: does not inhibit
- Metabolism in hepatic microsomes [5]: No metabolism
